According to patent publication US20050261298A1, “Methods of treating conditions associated with an Edg-7 receptor” (priority 2002, published 2005):

What was measured:
Edg-6 [1] = biological target: T1, Edg-6 (Homo sapiens, UniProt O95977); assay: Calcium mobilization assay (FLIPR), agonist stimulation of calcium increase; format: cell-based; conditions: HTC cells expressing Edg-6; for stimulation of calcium increases, Edg-6: concentrations as high as 25 µM
T1 construct: expressed in transfected cells; host or cells: HTC rat hepatoma cells
T1 sequence (O95977 1-384): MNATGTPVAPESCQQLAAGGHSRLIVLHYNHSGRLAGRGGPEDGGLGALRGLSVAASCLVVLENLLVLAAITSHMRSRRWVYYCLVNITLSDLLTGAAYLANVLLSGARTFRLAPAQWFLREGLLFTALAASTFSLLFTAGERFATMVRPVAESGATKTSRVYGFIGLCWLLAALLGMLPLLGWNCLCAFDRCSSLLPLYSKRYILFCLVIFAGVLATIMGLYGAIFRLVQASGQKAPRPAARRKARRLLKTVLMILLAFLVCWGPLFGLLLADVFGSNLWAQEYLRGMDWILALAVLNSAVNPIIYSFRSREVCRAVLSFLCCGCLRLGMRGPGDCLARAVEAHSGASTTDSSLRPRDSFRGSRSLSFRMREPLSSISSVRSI

Edg-4 [2] = biological target: T2, Edg-4 (Homo sapiens, UniProt Q9HBW0); assay: as above; format: cell-based; conditions: HTC cells expressing Edg-4; for stimulation of calcium increases, Edg-4: concentrations as high as 25 µM
Target sequence in this assay (Q9HBW0 1-340 limits assumed): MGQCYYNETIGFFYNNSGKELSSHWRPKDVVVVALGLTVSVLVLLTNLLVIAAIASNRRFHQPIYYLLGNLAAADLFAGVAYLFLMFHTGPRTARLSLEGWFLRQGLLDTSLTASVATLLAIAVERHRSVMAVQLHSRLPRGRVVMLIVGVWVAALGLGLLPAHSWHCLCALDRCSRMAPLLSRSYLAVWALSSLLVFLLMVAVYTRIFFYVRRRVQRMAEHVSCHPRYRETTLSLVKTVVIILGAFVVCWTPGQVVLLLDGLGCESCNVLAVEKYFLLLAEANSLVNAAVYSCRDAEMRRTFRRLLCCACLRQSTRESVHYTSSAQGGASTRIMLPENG

human Edg 7 receptors [3] = biological target: T3, human Edg 7 receptors (Homo sapiens, UniProt Q9UBY5); assay: as above; format: cell-based; conditions: for EC50 / specific activation of the Edg-7 receptor: HTC cells expressing human Edg 7; for Fold Selectivity: agonist selectivity for Edg-7 relative to other Edg receptors and null cells
T3 construct: expressed in transfected cells
T3 sequence (Q9UBY5 1-353): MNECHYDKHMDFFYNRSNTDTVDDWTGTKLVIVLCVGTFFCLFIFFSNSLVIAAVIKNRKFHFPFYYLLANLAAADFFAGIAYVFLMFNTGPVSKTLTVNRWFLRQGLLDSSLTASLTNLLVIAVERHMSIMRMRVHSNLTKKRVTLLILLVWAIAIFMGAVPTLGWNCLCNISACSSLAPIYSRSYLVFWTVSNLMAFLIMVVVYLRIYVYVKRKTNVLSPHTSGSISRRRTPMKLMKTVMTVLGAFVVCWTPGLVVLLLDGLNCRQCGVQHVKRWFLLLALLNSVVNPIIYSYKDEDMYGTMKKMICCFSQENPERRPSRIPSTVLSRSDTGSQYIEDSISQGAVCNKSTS
Procedure: (§1) The compounds were tested in HTC cells expressing human Edg 7 receptors. […] The compounds are tested in this recombinant system first, and subsequently tested in cell lines expressing Edg-7 (in addition to other Edg receptors).
(§2) LPA receptors such as Edg-7, couple to calcium effector pathways, and result in increases in intracellular calcium following receptor activation (An, 1998, J. Cell. Biochem Supp. 30-31:147-157). This biological response lends itself to a very efficient, high-throughput screen using a Fluorescence Imaging Plate Reader (FLIPR; Molecular Devices, Sunnyvale, Calif.). The FLIPR system is a real-time, cell-based assay system with continuous fluorescence detection using a cooled CCD camera. The FLIPR system was used to developing an Edg-7 receptor screen. Rat hepatoma cells stably expressing Edg-7 receptor were plated on 384-well plates and loaded with a calcium dye loading kit (Molecular Devices, Sunnyvale, Calif.) for 1 hour at room temperature. Cells were then placed on the FLIPR^384 (Molecular Devices, Sunnyvale, Calif.) and excited by an argon laser at […]. The data for the entire 384-well plate was updated every second. An integrated robotic pipettor allowed for simultaneous compound addition into each individual well in the plate

Edg-8 [4] = biological target: T4, Edg-8 (Homo sapiens, UniProt Q9H228); assay: as above; format: cell-based; conditions: HTC cells expressing Edg-8; for stimulation of calcium increases, Edg-8: concentrations as high as 25 µM
T4 construct: expressed in transfected cells; host or cells: HTC rat hepatoma cells

Edg-2 [5] = biological target: T5, Edg-2 (Homo sapiens, UniProt Q92633); assay: Calcium mobilization assay (FLIPR), agonist stimulation of calcium increase; format: cell-based; conditions: HTC cells expressing Edg-2; for stimulation of calcium increases, Edg-2: concentrations as high as 25 µM
T5 construct: expressed in transfected cells; host or cells: HTC rat hepatoma cells

Edg-1 [6] = biological target: T6, Edg-1 (Homo sapiens, UniProt P21453); assay: as above; format: cell-based; conditions: HTC cells expressing Edg-1; for stimulation of calcium increases, Edg-1: concentrations as high as 25 µM
T6 construct: expressed in transfected cells; host or cells: HTC rat hepatoma cells

untransfected HTC cells = assay: Calcium mobilization assay (FLIPR), agonist stimulation in null cells; format: cell-based, rat; conditions: for EC50: Rattus norvegicus; for stimulation of calcium increases, untransfected HTC cells: concentrations as high as 25 µM
Edg-3 [7] = biological target: T7, Edg-3 (Homo sapiens, UniProt Q99500); assay: Calcium mobilization assay (FLIPR), agonist stimulation of calcium increase; format: cell-based; conditions: HTC cells expressing Edg-3; for stimulation of calcium increases, Edg-3: concentrations as high as 25 µM
T7 construct: expressed in transfected cells; host or cells: HTC rat hepatoma cells

Edg-5 [8] = biological target: T8, Edg-5 (Homo sapiens, UniProt O95136); assay: as above; format: cell-based; conditions: HTC cells expressing Edg-5; for stimulation of calcium increases, Edg-5: concentrations as high as 25 µM
T8 construct: expressed in transfected cells; host or cells: HTC rat hepatoma cells

Edg-4 [9] = biological target: T2, Edg-4; assay: Calcium mobilization assay (FLIPR), inhibition of LPA-stimulated calcium increase; format: cell-based; conditions: HTC cells expressing Edg-4
Target sequence in this assay (Q9HBW0 1-344 limits assumed): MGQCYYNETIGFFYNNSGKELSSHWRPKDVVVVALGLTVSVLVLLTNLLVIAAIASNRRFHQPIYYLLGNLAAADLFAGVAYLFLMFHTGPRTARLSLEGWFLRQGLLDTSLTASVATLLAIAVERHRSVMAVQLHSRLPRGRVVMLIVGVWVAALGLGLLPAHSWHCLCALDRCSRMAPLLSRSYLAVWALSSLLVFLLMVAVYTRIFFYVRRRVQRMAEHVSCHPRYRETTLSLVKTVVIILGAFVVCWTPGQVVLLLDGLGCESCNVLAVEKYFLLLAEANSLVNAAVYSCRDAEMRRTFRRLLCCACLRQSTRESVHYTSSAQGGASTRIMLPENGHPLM

Edg-2 [10] = biological target: T5, Edg-2; assay: as above; format: cell-based; conditions: HTC cells expressing Edg-2
Edg-6 [11] = biological target: T1, Edg-6; assay: Calcium mobilization assay (FLIPR), inhibition of S1P-stimulated calcium increase; format: cell-based; conditions: HTC cells expressing Edg-6
Edg-8 [12] = biological target: T4, Edg-8; assay: as above; format: cell-based; conditions: HTC cells expressing Edg-8
Edg-1 [13] = biological target: T6, Edg-1; assay: as above; format: cell-based; conditions: HTC cells expressing Edg-1
human Edg 7 receptors [14] = biological target: T3, human Edg 7 receptors; assay: Calcium mobilization assay (FLIPR), inhibition of LPA response; format: cell-based; conditions: for IC50: HTC cells expressing human Edg 7; for Fold Selectivity: inhibitory selectivity for Edg-7 relative to other Edg receptors
Procedure: as §1
The radioligand binding assays were conducted as described in Section 6.15 (Example 15).
as §2

Edg-3 [15] = biological target: T7, Edg-3; assay: Calcium mobilization assay (FLIPR), inhibition of S1P-stimulated calcium increase; format: cell-based; conditions: HTC cells expressing Edg-3
Edg-5 [16] = biological target: T8, Edg-5; assay: as above; format: cell-based; conditions: HTC cells expressing Edg-5

T5 sequence (Q92633 whole entry): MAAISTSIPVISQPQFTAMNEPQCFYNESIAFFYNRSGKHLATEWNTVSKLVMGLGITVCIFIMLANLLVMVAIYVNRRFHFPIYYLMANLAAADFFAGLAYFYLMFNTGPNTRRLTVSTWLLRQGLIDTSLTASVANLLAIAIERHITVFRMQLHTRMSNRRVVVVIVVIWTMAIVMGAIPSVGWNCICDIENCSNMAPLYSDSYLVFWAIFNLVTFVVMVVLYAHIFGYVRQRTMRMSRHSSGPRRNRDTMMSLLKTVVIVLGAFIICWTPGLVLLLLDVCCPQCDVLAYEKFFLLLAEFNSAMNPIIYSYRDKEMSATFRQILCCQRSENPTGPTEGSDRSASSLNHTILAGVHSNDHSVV
T6 sequence (P21453 whole entry): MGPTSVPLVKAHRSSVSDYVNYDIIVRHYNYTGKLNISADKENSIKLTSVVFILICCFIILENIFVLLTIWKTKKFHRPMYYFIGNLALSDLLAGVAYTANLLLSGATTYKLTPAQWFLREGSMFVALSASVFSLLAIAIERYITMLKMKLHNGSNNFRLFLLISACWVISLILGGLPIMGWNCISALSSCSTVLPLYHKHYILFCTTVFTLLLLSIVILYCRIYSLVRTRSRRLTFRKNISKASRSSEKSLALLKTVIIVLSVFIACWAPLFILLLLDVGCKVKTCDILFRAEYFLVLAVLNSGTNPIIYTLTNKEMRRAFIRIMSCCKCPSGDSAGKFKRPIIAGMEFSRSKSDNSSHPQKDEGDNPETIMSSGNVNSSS
T8 sequence (O95136 whole entry): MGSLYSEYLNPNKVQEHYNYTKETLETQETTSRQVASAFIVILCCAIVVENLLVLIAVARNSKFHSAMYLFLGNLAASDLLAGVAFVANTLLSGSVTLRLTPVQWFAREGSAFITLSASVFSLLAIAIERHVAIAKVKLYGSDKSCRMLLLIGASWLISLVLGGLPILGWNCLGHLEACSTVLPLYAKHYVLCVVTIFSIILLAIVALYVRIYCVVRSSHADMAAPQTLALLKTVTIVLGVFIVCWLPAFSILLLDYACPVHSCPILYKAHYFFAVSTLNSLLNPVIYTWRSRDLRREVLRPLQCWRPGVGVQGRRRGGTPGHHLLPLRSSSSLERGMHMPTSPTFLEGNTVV
T7 sequence (Q99500 whole entry): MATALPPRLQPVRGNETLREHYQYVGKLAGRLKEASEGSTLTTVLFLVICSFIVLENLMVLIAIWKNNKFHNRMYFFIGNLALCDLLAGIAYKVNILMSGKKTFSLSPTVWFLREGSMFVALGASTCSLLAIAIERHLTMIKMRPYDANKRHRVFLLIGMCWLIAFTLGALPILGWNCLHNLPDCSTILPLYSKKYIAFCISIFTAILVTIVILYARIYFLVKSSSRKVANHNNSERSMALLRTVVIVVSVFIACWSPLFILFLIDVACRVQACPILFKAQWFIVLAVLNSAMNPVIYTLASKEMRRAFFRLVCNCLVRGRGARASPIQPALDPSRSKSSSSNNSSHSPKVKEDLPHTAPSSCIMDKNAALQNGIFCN
T4 sequence (Q9H228 whole entry): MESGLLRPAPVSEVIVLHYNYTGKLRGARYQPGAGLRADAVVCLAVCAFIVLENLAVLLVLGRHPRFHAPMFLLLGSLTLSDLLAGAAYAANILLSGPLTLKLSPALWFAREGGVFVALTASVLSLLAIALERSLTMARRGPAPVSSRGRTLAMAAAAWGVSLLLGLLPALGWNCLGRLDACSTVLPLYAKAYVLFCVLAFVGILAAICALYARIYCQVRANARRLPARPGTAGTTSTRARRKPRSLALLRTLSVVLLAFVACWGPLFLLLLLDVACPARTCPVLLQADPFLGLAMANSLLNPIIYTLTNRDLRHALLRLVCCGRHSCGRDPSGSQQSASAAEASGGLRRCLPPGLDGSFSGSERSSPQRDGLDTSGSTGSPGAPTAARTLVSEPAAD

Cc1cc(C)c2c(c1)Cc1ccccc1S2(=O)=O [Compound 133, 2,4-Dimethyl-9H-thioxanthene 10,10-dioxide]
EC50 (Edg-6 [1]): > 25 µM | stimulation of calcium increases, Edg-6 (Edg-6 [1]): did not stimulate | EC50 (Edg-4 [2]): > 25 µM | stimulation of calcium increases, Edg-4 (Edg-4 [2]): did not stimulate | EC50 (human Edg 7 receptors [3]): 1.61 µM | specific activation of the Edg-7 receptor (human Edg 7 receptors [3]): specifically activate | Fold Selectivity (human Edg 7 receptors [3]): >15.5 Fold | EC50 (Edg-8 [4]): > 25 µM | stimulation of calcium increases, Edg-8 (Edg-8 [4]): did not stimulate | melting point: 103 to 105 °C | EC50 (Edg-2 [5]): > 25 µM | stimulation of calcium increases, Edg-2 (Edg-2 [5]): did not stimulate | EC50 (Edg-1 [6]): > 25 µM | stimulation of calcium increases, Edg-1 (Edg-1 [6]): did not stimulate | EC50 (untransfected HTC cells): > 25 µM | stimulation of calcium increases, untransfected HTC cells (untransfected HTC cells): did not stimulate | EC50 (Edg-3 [7]): > 25 µM | stimulation of calcium increases, Edg-3 (Edg-3 [7]): did not stimulate | EC50 (Edg-5 [8]): > 25 µM | stimulation of calcium increases, Edg-5 (Edg-5 [8]): did not stimulate

O=C(O)COc1ccc(Br)cc1/C=C1\S/C(=N\c2ccc(Cl)cc2)NC1=O (racemic) [Compound 107, 4-Bromo-2-[2-(4-chlorophenylimino)-4-oxothiazolidin-5-ylidenemethyl]phenoxyacetic acid]
IC50 (Edg-4 [9]): > 20 µM | melting point: 272 °C (dec.) | IC50 (Edg-2 [10]): > 20 µM | IC50 (Edg-6 [11]): > 20 µM | IC50 (Edg-8 [12]): > 20 µM | IC50 (Edg-1 [13]): > 20 µM | IC50 (human Edg 7 receptors [14]): 7.73 µM | Fold Selectivity (human Edg 7 receptors [14]): >2.6 Fold | IC50 (Edg-3 [15]): > 20 µM | IC50 (Edg-5 [16]): > 20 µM

COc1ccc(-c2nc3ccc(C(=O)O)cc3nc2-c2ccc(OC)cc2)cc1 [Compound 129, 2,3-bis-(4-Methoxyphenyl) quinoxaline-6-carboxylic acid]
EC50 (Edg-6 [1]): > 25 µM | stimulation of calcium increases, Edg-6 (Edg-6 [1]): did not stimulate | EC50 (Edg-4 [2]): > 25 µM | stimulation of calcium increases, Edg-4 (Edg-4 [2]): did not stimulate | EC50 (human Edg 7 receptors [3]): 0.37 µM | specific activation of the Edg-7 receptor (human Edg 7 receptors [3]): specifically activate | Fold Selectivity (human Edg 7 receptors [3]): >68 Fold | EC50 (Edg-8 [4]): > 25 µM | stimulation of calcium increases, Edg-8 (Edg-8 [4]): did not stimulate | melting point: 284 to 285 °C | EC50 (Edg-2 [5]): > 25 µM | stimulation of calcium increases, Edg-2 (Edg-2 [5]): did not stimulate | EC50 (Edg-1 [6]): > 25 µM | stimulation of calcium increases, Edg-1 (Edg-1 [6]): did not stimulate | EC50 (untransfected HTC cells): > 25 µM | stimulation of calcium increases, untransfected HTC cells (untransfected HTC cells): did not stimulate | EC50 (Edg-3 [7]): > 25 µM | stimulation of calcium increases, Edg-3 (Edg-3 [7]): did not stimulate | EC50 (Edg-5 [8]): > 25 µM | stimulation of calcium increases, Edg-5 (Edg-5 [8]): did not stimulate

CCCCCC(CCCCC)=N/N=C1\NC(=O)C(CC(=O)O)S1 (stereo not drawn) [Compound 127, 4-Oxo-2-[(1-pentylhexylidene)hydrazono]thiazolidin-5-ylacetic acid]
EC50 (Edg-6 [1]): > 25 µM | stimulation of calcium increases, Edg-6 (Edg-6 [1]): did not stimulate | EC50 (Edg-4 [2]): > 25 µM | stimulation of calcium increases, Edg-4 (Edg-4 [2]): did not stimulate | EC50 (human Edg 7 receptors [3]): 0.23 µM | specific activation of the Edg-7 receptor (human Edg 7 receptors [3]): specifically activate | Fold Selectivity (human Edg 7 receptors [3]): >109 Fold | EC50 (Edg-8 [4]): > 25 µM | stimulation of calcium increases, Edg-8 (Edg-8 [4]): did not stimulate | melting point: 134 to 135 °C | EC50 (Edg-2 [5]): > 25 µM | stimulation of calcium increases, Edg-2 (Edg-2 [5]): did not stimulate | EC50 (Edg-1 [6]): > 25 µM | stimulation of calcium increases, Edg-1 (Edg-1 [6]): did not stimulate | EC50 (untransfected HTC cells): > 25 µM | stimulation of calcium increases, untransfected HTC cells (untransfected HTC cells): did not stimulate | EC50 (Edg-3 [7]): > 25 µM | stimulation of calcium increases, Edg-3 (Edg-3 [7]): did not stimulate | EC50 (Edg-5 [8]): > 25 µM | stimulation of calcium increases, Edg-5 (Edg-5 [8]): did not stimulate

Cc1ccc(S(=O)(=O)N=C2NC(=O)/C(=C3/C(=O)Nc4ccccc43)S2)cc1 [Compound 105, 4-Methyl-N-[4-oxo-5-(2-oxo-1,2-dihydroindol-3-ylidene)thiazolidin-2-ylidene]-benzenesulfonamide]
IC50 (Edg-4 [9]): > 20 µM | melting point: 320 °C (dec.) | IC50 (Edg-2 [10]): > 20 µM | IC50 (Edg-6 [11]): > 20 µM | IC50 (Edg-8 [12]): > 20 µM | IC50 (Edg-1 [13]): > 20 µM | selective inhibition of the Edg-7 receptor (FIG. 1, FIG. 2) (human Edg 7 receptors [14]; HTC cells expressing Edg-7): exhibited selectivity | IC50 (human Edg 7 receptors [14]): 0.52 µM | Fold Selectivity (human Edg 7 receptors [14]): >38.5 Fold | IC50 (Edg-3 [15]): > 20 µM | IC50 (Edg-5 [16]): > 20 µM
